The source of these data is publication PMC9962735, “Synthesis and Cytotoxic Activity of the Derivatives of N-(Purin-6-yl)aminopolymethylene Carboxylic Acids and Related Compounds” (Molecules, 2023).

The structures appear in SMILES notation. Bounds are passed on as bounds.

Series [1] can be described thus: Solubility in aqueous media. It is filed as physicochemical. The settings on record: result in words.
Series [2] has as its system A549, SK-BR-3, SNU-1, Jurkat, WI-38 cell lines. Briefly: MTT cytotoxicity assay, cell line panel (result in words). Particulars: 72 h. It is filed as cell-based, human. The source says: (§1) The cytotoxicity of the test compounds was studied using the MTT assay against a number of cell lines: CT-26 murine colon carcinoma, 4T1 murine mammary carcinoma, MDA-MB-231 human breast adenocarcinoma, COLO201 human colorectal adenocarcinoma, HepG2 human hepatocellular carcinoma, A549 human non-small-cell lung carcinoma, SK-BR-3 human breast adenocarcinoma, SNU-1 human gastric carcinoma, Jurkat human acute T-lymphoblastic leukemia, and WI-38 human lung fibroblasts (normal cells). Doxorubicin (Dox) was used as a reference drug. Cells were incubated with test compounds for 72 h.
The cytotoxicity of compounds 2a–c, 6, 7, and 9 was also studied using the MTT assay against a number of tumor cell lines: A549, SK-BR-3, SNU-1, Jurkat, as well as normal fibroblasts WI-38 (Table 3).
(§2) Cells were seeded in flat-bottomed 96-well plates at 10,000 cells per well (for A549, SNU-1, WI-38, CT-26, MDA-MB-231, 4T1, and HepG2 cells) or 20,000 cells per well (for SK-BR-3, Jurkat, and COLO201 cells) and cultivated in complete culture mediums (for composition of each medium, see the Supplementary Materials, Table S1) in a CO2 incubator at 37 °C. At the first stage of this study, the test compounds dissolved in DMSO were added to the wells with cells at final concentrations from 1 × 10^–4 to 1 × 10^–10 mol/L (A549, SK-BR-3, SNU-1, Jurkat, and WI-38) or 1 × 10^–3 to 1 × 10^–8 mol/L (CT-26, MDA-MB-231, 4T1, COLO201, and HepG2); DMSO concentration in the wells was finally 1%. A complete cultural medium and DMSO were added to the control wells at the same concentration as in the experimental wells; 0.1% Triton X-100 solution (10 µL) was added to the corresponding wells as a non-specific positive control. After adding the test compounds, the cells were incubated for 72 h in an atmosphere containing 5% CO2. After that, the nutrient medium was removed from each well (in the case of SK-BR-3, Jurkat, and COLO201, plates were pre-centrifuged at 1500 rpm for 6 min). A solution of the commercial anticancer agent Doxorubicin (Dox, Sigma-Aldrich, St. Louis, MO, USA) in DMSO was used as a reference drug. Then, 150 µL of a complete medium with the MTT reagent (PanEco, Moscow, Russia) at a concentration of 0.5 mg/mL was added and incubated for 2 h. Formazan crystals were dissolved in DMSO (200 µL) and the absorbance in the wells was measured at 540 nm and a reference wavelength of 650 nm (Sunrise, Tecan, Groding, Austria). Experiments were performed in three parallel runs. Cell viability after incubation in the presence of test compounds was calculated in relation to cell viability in the control wells according to the Formula (1):Cell viability (%) = (Aexp/Ac) × 100,(1) where Aexp is the optical density of solutions in the wells containing test compounds; Ac is the optical density of solutions in control wells without test compounds. For detailed information on cell viability of various cell lines, see the Supplementary Materials, Figures S21–S26.
(§3) At the second stage of this study, in order to more accurately calculate the CC50 (the half maximal inhibitory concentration), the cytotoxic effect of test compounds was evaluated at concentrations close to CC50 found at the first stage. The study of the cytotoxic activity of each substance towards the cells of each line was carried out in triplicate; the mean value was used to calculate CC50. The CC50 values were determined by non-linear regression analysis using Graph-Pad Prism7.
A general note: Tetrazolium dyes change colour on reduction, which living cells bring about.

In series [3] the test system is SNU-1 human gastric carcinoma. Nature of the series: MTT cytotoxicity assay, SNU-1. The class given is cell-based. The settings on record: Homo sapiens, SNU1, 72 h, SNU-1, 72 h incubation, MTT, n = 3 (Table 3).
Source text: as §1, §2, §3

The nature of series [4]: MTT cytotoxicity assay, SNU-1. The settings on record: human, CC50 of WI-38 divided by CC50 of SNU-1 (Table 3); read-out: SCI (selective cytotoxicity index). It is filed as cell-based, human.
Source text: as §1, §2, §3

A short description of series [5]: MTT cytotoxicity assay, WI-38 normal cells. The class given is cell-based. The settings on record: human, WI-38 lung fibroblasts (normal cells), WI-38, 72 h incubation, MTT, n = 3 (Table 3).
Source text: as §1, §2, §3

Series [6] deals with A549 human non-small-cell lung carcinoma. Briefly: MTT cytotoxicity assay, A549. Particulars: Homo sapiens, A549, 72 h, A549, 72 h incubation, MTT, n = 3 (Table 3). The class given is cell-based.
Source text: as §1, §2, §3

Series [7] is described as follows: MTT cytotoxicity assay, A549. The settings on record: human, CC50 of WI-38 divided by CC50 of A549 (Table 3); read-out: SCI (selective cytotoxicity index). It is filed as cell-based, human.
Source text: as §1, §2, §3

Series [8] deals with Jurkat human acute T-lymphoblastic leukemia. Nature of the series: MTT cytotoxicity assay, Jurkat. It is filed as cell-based. The settings on record: Homo sapiens, Jurkat, 72 h, 72 h incubation, MTT, n = 3 (Table 3).
Source text: as §1, §2, §3

A short description of series [9]: MTT cytotoxicity assay, Jurkat. Particulars: human, CC50 of WI-38 divided by CC50 of Jurkat (Table 3); read-out: SCI (selective cytotoxicity index). The class given is cell-based, human.
Source text: as §1, §2, §3

The subject of series [10] is SK-BR-3 human breast adenocarcinoma. Briefly: MTT cytotoxicity assay, SK-BR-3. It is filed as cell-based. The settings on record: Homo sapiens, SK-BR-3, 72 h, SK-BR-3, 72 h incubation, MTT, n = 3 (Table 3).
Source text: as §1, §2, §3

Series [11] is described as follows: MTT cytotoxicity assay, SK-BR-3. The class given is cell-based, human. The settings on record: human, CC50 of WI-38 divided by CC50 of SK-BR-3 (Table 3); read-out: SCI (selective cytotoxicity index).
Source text: as §1, §2, §3

The subject of series [12] is herpes simplex virus type 1 (HSV-1), including acyclovir-resistant HSV-1 strain. Also on record: method as in doi:10.1002/ejoc.201900727, doi:10.1515/pac-2019-1214, doi:10.1007/s10593-021-02929-z. The settings on record: HSV-1 including acyclovir-resistant strain; cited from earlier work.

As usually defined, the CC50 is the concentration that lowers cell viability or growth by half. Low readings indicate greater toxicity to the cells, high ones lower toxicity to the cells.

`CC1COc2c(ccc(F)c2F)N1C(=O)CCCCCCCCCCNc1ncnc2c1ncn2COCCO` (stereo not shown) [Compound 7, 4-{11-[9-(2-Hydroxyethoxy)methylpurin-6-yl]aminoundecanoyl}-7,8-difluoro-3,4-dihydro-3-methyl-2H-[1,4]benzoxazine]: the “solubility in aqueous media” value in series [1] is listed as “not possible to achieve a significant increase in the solubility”. Besides, the “cytotoxic activity (in words)” value in [2] is recorded as “approximately the same cytotoxicity as the most active compound 1d”. The CC50 turned out to be 3.7 µM in series [3], 9.4 µM in [6], 7.3 µM in [8] and 42 µM in [10]. Besides, the selectivity ratio at 72 h in [4] worked out at 3.8; in series [7], 1.5; in series [9], 1.9; in [11] it was 0.33. Besides, it took 14 µM to reach half-maximal cytotoxicity in [5] (CC50 at 72 h).
Turning to `CC1COc2c(ccc(F)c2F)N1C(=O)CCCCCNc1ncnc2[nH]cnc12` (stereo not shown) [Compound 1b], in series [2], the “cytotoxic activity (in words)” value is recorded as “showed cytotoxic activity”. In addition, the “antiviral activity in vitro against HSV-1” value in series [12] is recorded as “high antiviral activity”. Further, the CC50 in [3] is 20 µM; in [6] it was 53 µM; in [8] it was 67 µM; in series [10], above 100 µM. For the same compound, the selectivity ratio at 72 h in [4] was 4.9; in series [7], 1.8; in series [9], 1.5; in [11] it was at most 0.98. The same compound registered a CC50 at 72 h in series [5] of 98 µM.
